These results are taken from paper PMC10000267, “ALA‐A2 Is a Novel Anticancer Peptide Inspired by Alpha‐Lactalbumin: A Discovery from a Computational Peptide Library, In Silico Anticancer Peptide Screening and In Vitro Experimental Validation” (Global Challenges, 2023).

One data set relates to Human red blood cells. Briefly: Ex vivo hemolysis assay (RBC lysis assay). Format: cell-based. To be noted: ≈0.8% v/v human RBC suspension in 0.9% normal saline, peptide 200 µM, 1 h, room temperature, absorbance 415 nm, relative to 1% Triton X‐100; blood of three healthy individuals, mean ± SD. The protocol:
The hemolysis assay was as described previously.^[ [30] ^] After informed consent, peripheral blood (3 mL) was collected from three healthy individuals into heparin tubes (BD Biosciences, NJ, USA). The specimen was centrifuged at 2000 × g for 5 min at room temperature, and the plasma was discarded. The RBCs were washed twice with PBS and then resuspended in 0.9% normal saline solution at a volume equivalent to that of the original plasma. Approximately 0.8% v/v RBC suspension was incubated with the peptides at 200 µM (100 µL final volume) in a U‐bottom 96‐well plate at room temperature for 1 h with agitation. 1% v/v Triton X‐100 was applied as a positive control. The untreated condition served as the blank control. After 1 h incubation, the supernatants were collected by centrifuging at 2000 × g for 5 min at room temperature. The absorbance of hemoglobin in the supernatant was measured at 415 nm. The hemolysis percentage was calculated as follows: (2) % Hemolysis = [sample absorbance−blank control/positive control−blank control] × 100

The subject of data set [1] is MDA‐MB‐231 breast cancer cells. The data set is described as follows: In vitro cancer cytotoxicity (MTT assay). Format: cell-based, human. To be noted: MDA‐MB‐231, peptide 200 µM, 24 h. The protocol:
(§1) All cell lines were obtained from the American Type Culture Collection (ATCC, Manassas, VA, USA). The A549 lung adenocarcinoma (ATCC CCL‐185TM), MDA‐MB‐231 triple‐negative breast adenocarcinoma (ATCC HTB‐26TM), and SH‐SY5Y neuroblastoma (ATCC CRL‐2266TM) cell lines were cultured in Dulbecco's Modified Eagle's Medium (DMEM)‐high glucose (Gibco, Thermo Fisher Scientific, MA, USA). HT29 colon adenocarcinoma (ATCC HTB‐38) cell lines were maintained in DMEM/Nutrient Mixture F‐12 (Gibco). K562 chronic myeloid leukemia (ATCC CRL‐3344) were grown in Roswell Park Memorial Institute Medium 1640 (Gibco). The cells were cultured in medium supplemented with 10% fetal bovine serum (Gibco) and 1× penicillin/streptomycin (Gibco) and incubated in a 5% CO2 incubator with saturated humidity.
(§2) The protocol previously described by Chiangjong et al. and Baindara et al.^[ [5], [29] ^] was modified for use in determining the cytotoxicity of peptides on the various cancer types. Adherent cells were seeded at 1 × 10^4 cells/well into a 96‐well plate 24 h prior to replacing the media containing the peptide of interest. Suspended cells were seeded at 1 × 10^4 cells/well in the media containing the peptide of interest. Five human cell lines, including lung cancer (A549), colon cancer (HT29), breast cancer (MDA‐MB‐231), neuroblastoma (SH‐SY5Y), and leukemia (K562) cells, were treated with the culture media containing the peptides at 200 µM for 24 h. Cell viability was then determined using Cell Proliferation Kit I, MTT (Roche Diagnostics GmbH, Mannheim, Germany): MTT labeling reagent (10 µL) was added to each well and incubated at 37 °C in a 5% CO2 atmosphere for 4 h. After incubation, 100 µL solubilizing solution was added to each well and incubated at 37 °C in 5% CO2 overnight. The absorbance at 570 nm (A 570) was measured for each well. The percentage of cell viability was calculated as: (1) % Cell Viability=[A570 of treated cells − A570 of media/A570 of untreated cells−A570 of media] × 100
On the technique in general: Tetrazolium dyes change colour on reduction, which living cells bring about.

The subject of another data set is K562 leukemia cells. The data set is described as follows: In vitro cancer cytotoxicity (MTT assay). Format: cell-based, human. To be noted: K562, peptide 200 µM, 24 h. The protocol:
as §1, §2

In data set [2] the test system is SH‐SY5Y neuroblastoma cells. The data set is described as follows: In vitro cancer cytotoxicity (MTT assay). The format is cell-based, human. As to conditions: peptide 200 µM, 24 h. The protocol: as §1, §2
The test system of another data set is A549 cells. The data set is described as follows: Autophagy activity assay. The format is cell-based, human. To be noted: A549, 200 µM, 24 h; autophagosome/autophagolysosome signal normalised to nuclear signal; three biological replicates. The protocol: A549 cells (1 × 10^4 cells/well in a 96‐well plate) were treated with 200 µM ALA‐A2. Treated cells were maintained for 24 h before determining autophagy activity using an autophagy assay kit (ab139484, Abcam, Milpitas, CA). To prepare for the staining, the media was removed, and the cells were washed once with 1× assay buffer. The dual color detection solution was added to the wells and incubated for 30 min. The cells were washed and 1× assay buffer added to each well. The nuclear signal was excitation of 340 nm and […], whereas autophagosomes and autophagolysosomes were detected by excitation of 480 nm and emission of 530 nm. Autophagy activity was calculated by normalizing the autophagosome/autophagolysosome signal to the nuclear signal. Rapamycin (2 µM), a known autophagy inducer, was the positive control.^[ [33] ^] This experiment was performed in three biological replicates.

Data set [3] deals with A549 lung adenocarcinoma cells. The data set is described as follows: In vitro cancer cytotoxicity (MTT assay). Format: cell-based, human. As to conditions: 24 h. The protocol: as §1, §2
(§3) To evaluate dose‐dependency, ≈1 × 10^4 cells/well were cultured in media containing ALA‐A2 at 0, 6.25, 12.5, 25, 50, 100, 200, and 400 µM in a 96‐well plate for 24 h. Cell viability was determined by the MTT assay, as above.

Data set [4] has as its system HT29 colon adenocarcinoma cells. Briefly: In vitro cancer cytotoxicity (MTT assay). The format is cell-based, human. To be noted: 24 h. The protocol:
as §1, §2, §3

Molecules are shown by their SMILES. Residues, ends and D or L forms follow the SMILES beside them.

On to `CC(C)C[C@H](NC(=O)[C@@H](N)CCCCN)C(=O)N[C@@H](Cc1c[nH]c2ccccc12)C(=O)N[C@@H](CS)C(=O)N[C@@H](CCCCN)C(=O)N[C@@H](CO)C(=O)N[C@@H](CO)C(=O)N[C@@H](CCC(N)=O)C(=O)N[C@H](C(=O)N1CCC[C@H]1C(=O)N[C@@H](CCC(N)=O)C(=O)N[C@@H](CO)C(=O)N[C@@H](CCCNC(=N)N)C(=O)O)C(C)C` [ALA‐A2] (H-KLWCKSSQVPQSR-OH), for which the percent hemolysis in the data set with Human red blood cells is 7.8% ± 10.2%. Besides, the “anticancer effect (in words)” value (in data set [1]; in the data set with K562 leukemia cells; in data set [2]) was “did not affect” each time. Moreover, the autophagic activity in the data set on A549 cells is 1.5 fold of untreated cells. Moreover, the cell viability in data set [3] (A549, peptide 200 µM, 37 °C, A570, mean ± SD, three biological replicates) is 59.7 ± 1.1 % cell viability; in data set [4] (HT29, peptide 200 µM, 37 °C, A570, mean ± SD, three biological replicates) it was 55.3 ± 2.7 % cell viability. The IC50 (commonly the concentration that gives 50% inhibition) in data set [3] (A549, twofold serial dilutions 0 to 400 µM) was around 300 µM; in data set [4] (HT29, twofold serial dilutions 0 to 400 µM, extrapolated beyond the tested range), above 1000 µM.
